Broadly, the EC50 is the concentration that produces a half-maximal response. For orientation: IC50 means the concentration needed to halve the response being measured. A higher IC50 goes with a need for much substance.

Data on three molecules can be found in patent US12139488B2, “Pyrido[3,2-d]pyrimidine compounds uses thereof for treating a proliferative disease” (Universite de Montreal, priority 2021, dated 2024).

Where two headings read alike, the source gives them in different places. Where only a bound is given, the exact number is not on record here.

Common to all, as to type: cell-based, human
The subject of one assay is IPC298 cells (NRAS-Q61L). Kind of assay: Proliferation inhibition (CellTiter-Glo), IPC298. To be noted: IPC298, 3 days, read-out: IPC298 Prolif. EC50. The procedure: (§1) All cancer cell lines (A375, A101D, A2058, RKO, HT29 SK-MEL 30, IPC298, HepG2, HCT-116, Lovo, SWV620, SW480, NCI-H358, NCI-H2122, Calu-6, NCIH2087, NCIH1755, NCIH1666 and Mewo) were obtained from ATCC and cultured in RPMI-1640 medium (Gibco) supplemented with 5% heat inactivated fetal bovine serum (FBS, Wisent) at 37° C. under 5% CO2. Cells were maintained in T175 flasks (Greiner). They were passaged by removing the culture medium, washing once in 10 mL of room temperature Phosphate Buffered Saline (PBS; Wisent) and incubating at 37° C. with 2 mL of 0.05% Trypsin (Thermo-Fisher). Trypsin was then inactivated by adding complete growth medium and the cells were then replated in a T175 culture dish at the appropriate dilution. All cell lines were routinely tested for mycoplasma contamination. Tissue type and mutational status of each cell line can be found in Table B.
(§2) CellTiter-Glo® viability analysis was conducted on cells plated in 100 μL of complete RPMI-1640 growth medium in 96-well flat-bottomed white opaque plates (Greiner or Croning) at a density indicated in Table E (for each CCL, number of cells plated per well of a 96-well plate to perform the CellTiter-Glo® cell viability assay). The cell density in cells/cm^2 would correspond to cell number divided by the area of one well of a 96-well plate (0.32 cm^2). […]
(§3) After 3 days of incubation, the growth media were removed by aspiration and 60 μL of diluted CellTiter-Glo® reagent (10 μL CellTiter-Glo® reagent+50 μL of PBS) was added to each well. […] Luminescence signals were then acquired on a Synergy Neo2 plate reader (Biotek).
(§4) The effect of each compound dilution on the proliferation of cancer cell lines was expressed in % inhibition and calculated as follows. […]
(§5) The ability of each compound to inhibit proliferation was expressed as a EC50 value obtained by plotting the effect values for each data point of a dilution series and fitting the obtained curves using a log(agonist) versus response-variable slope (four parameters) function using GraphPadPrism (V7.0) or Dotmatics Screening Ultra platform.

The subject of assay [1] is pERK in SW480 cells (KRAS G12D). As to the kind of experiment: Phospho-ERK inhibition (AlphaLISA), SW480. To be noted: for SW480 pERK % Ymin: value in parentheses. The procedure, abridged: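 p-ERK1/2 (Thr202/Tyr204) in lysates measured by AlphaLISA after 1 h compound exposure of overnight-plated cells (RPMI-1640, 5% FBS, 0.5% DMSO, ten concentrations, usually from 10 μM). Background from a trametinib control subtracted, inhibition normalised to vehicle, and IC50 fitted with a variable-slope four-parameter model.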
On the technique in general: In Alpha technology, singlet oxygen from a donor bead excites a nearby acceptor bead.

A further assay concerns Lovo cells (KRAS-G13D). Kind of assay: Proliferation inhibition (CellTiter-Glo), Lovo. To be noted: 3 days, read-out: Lovo Prolif. EC50. As for the experimental part:
as §1, §2, §3, §4, §5
In general terms: ATP-based viability assays read luminescence as a measure of living cells.

In assay [2] the test system is HCT-116 cells (KRAS G13D). As to the kind of experiment: Proliferation inhibition (CellTiter-Glo), HCT116. As to conditions: HCT116, 3 days, read-out: HCT116 Prolif. EC50. The procedure:
as §1, §2, §3, §4, §5

With `Nc1cccc2c1ncn2-c1ccc2ncnc(Nc3c(F)ccc(NS(=O)(=O)c4cccc(Cl)c4Cl)c3F)c2n1` [Example 99], the results for the EC50 (in the assay on IPC298 cells (NRAS-Q61L); in the assay on Lovo cells (KRAS-G13D); in assay [2]) were under 30 nM, under 30 nM and 300 to 3000 nM, respectively. Further, the concentration for half-maximal inhibition (IC50) is 30 to 300 nM in assay [1] (SW480, Table D) and under 500 nM in assay [1] (SW480 cells, class symbol before the bracket). For the same molecule, in assay [1] (SW480, Table D), the “SW480 pERK % Ymin” value is recorded as −7%. In addition, the “SW480 pERK Ymin %” value in assay [1] (SW480 cells, Ymin in brackets) is reported as −0.3%.
For the molecule `CC1(O)CCN(c2cccc3c2ncn3-c2ccc3ncnc(Nc4c(F)ccc(NS(=O)(=O)c5cccc(Cl)c5Cl)c4F)c3n2)CC1` [Example 524], the concentration for a half-maximal effect (EC50) was under 30 nM in the assay with IPC298 cells (NRAS-Q61L), under 30 nM with Lovo cells (KRAS-G13D) and 300 to 3000 nM in assay [2]. For the same molecule, the 50% inhibitory concentration (IC50) in assay [1] (SW480, Table D) was 30 to 300 nM; in assay [1] (SW480 cells, class symbol) it was under 500 nM. In addition, the “SW480 pERK % Ymin” value in assay [1] (SW480, Table D) is reported as 0%.
For `Cc1ccc2c(Nc3cccc(Cl)c3F)nccc2c1NC(=O)c1csc2c(N)ncnc12` [Belvarafenib, reference compound], the EC50 in the assay with IPC298 cells (NRAS-Q61L) (Homo sapiens, IPC-298, 72 h) was under 30 nM; in the assay on Lovo cells (KRAS-G13D) (Homo sapiens, 72 h), under 30 nM; in assay [2] (Homo sapiens, HCT-116, 72 h), 300 to 3000 nM. Besides, in assay [1] (Homo sapiens, SW480, Table D), the concentration for half-maximal inhibition (IC50) lay in the range of 30 to 300 nM. Moreover, the “SW480 pERK % Ymin” value in assay [1] (SW480, Table D) is listed as −100%.
